In article PMC11876671, “Investigating blood–brain barrier penetration and neurotoxicity of natural products for central nervous system drug development” (Scientific Reports, 2025):
Where a name gives a salt, the structure may show the parent alone.

Assay: in vitro
Conditions: PAMPA, PAMPA-BBB Pe

Row | SMILES | Papp [×10⁻⁶ cm/s]
1 | CC[C@H](C)C(=O)O[C@H]1CCC=C2C=C[C@H](C)[C@H](CC[C@@H]3C[C@@H](O)CC(=O)O3)[C@H]21 [MEVASTATIN] | 14

Same assay, conditions: PAMPA, PAMPA-BBB Pe(10^-6 cm/sec)

Row | SMILES | Papp [×10⁻⁶ cm/s]
2 | CN1c2c(nc(N)[nH]c2=O)NC[C@@H]1CNc1ccc(C(=O)N[C@@H](CCC(=O)O)C(=O)O)cc1 [LEVOMEFOLATE] | < 1
3 | C[C@H]1C[C@H]2[C@@H]3CCC4=CC(=O)C=C[C@]4(C)[C@H]3C(=O)C[C@]2(C)[C@@]1(O)C(=O)CO [MEPREDNISONE] | 3.7
4 | C/C(=C\C(=O)OCCCCCCCCC(=O)O)C[C@@H]1OC[C@H](C[C@@H]2O[C@H]2[C@@H](C)[C@H](C)O)[C@@H](O)[C@H]1O [MUPIROCIN] | < 1
5 | O=C(O)c1cccnc1 [NICOTINIC ACID] | < 1

Same assay, conditions: PAMPA, PAMPA-BBB Pe(10^-6 cm/sec), Table S3: compounds exhibiting low PAMPA-BBB permeability

Row | SMILES | Papp [×10⁻⁶ cm/s]
6 | O=C1C[C@@H](c2ccc(O[C@@H]3O[C@H](CO)[C@@H](O)[C@H](O)[C@H]3O)cc2)Oc2cc(O)ccc21 [LIQUIRITIN] | < 1
7 | O=C(/C=C/c1ccc(O)c2c1[C@H](C(=O)O)[C@@H](c1ccc(O)c(O)c1)O2)O[C@H](Cc1ccc(O)c(O)c1)C(=O)O [LITHOSPERMIC ACID A] | < 1
8 | COC(=O)C1=CO[C@@H](O[C@@H]2O[C@H](CO)[C@@H](O)[C@H](O)[C@H]2O)[C@@H]2[C@@H](C)[C@@H](O)C[C@H]12 [LOGANIN] | < 1
9 | COC(=O)c1ccc(O)c2nc3c(C=O)c(O)cc(O)c3nc12 [LOMOFUNGIN] | 5.1
10 | O=c1cc(-c2ccc(O)c(O)c2)oc2cc(O)cc(O)c12 [LUTEOLIN] | 2.2
11 | CC(C)=CCC/C(C)=C/C=C/C(C)=C/C=C/C(C)=C/C=C/C=C(C)/C=C/C=C(C)/C=C/C=C(\C)CCC=C(C)C [LYCOPENE] | < 1
12 | O=C(O)c1cc(N(Cc2ccccc2O)Cc2ccccc2O)ccc1O [L[…]] | 5.9
13 | COc1cc(-c2[o+]c3cc(O)cc(O)c3cc2O)cc(OC)c1O [MALVIDIN] | 1
14 | O=c1c2cc(O)c(O)cc2oc2cc(O)c([C@@H]3O[C@H](CO)[C@@H](O)[C@H](O)[C@H]3O)c(O)c12 [MANGIFERIN] | < 1
15 | CC1=C(CC/C(C)=C/CCC2=CC[C@H](C3=CC(=O)O[C@H]3O)O[C@H]2O)C(C)(C)CCC1 [MANOALIDE] | < 1
16 | O=C(/C=C/c1ccc(O)c(O)c1)c1ccc(O[C@@H]2O[C@H](CO)[C@@H](O)[C@H](O)[C@H]2O)c(O)c1O [MAREIN¦] | 1.6
17 | COc1ccc2[nH]cc(CCNC(C)=O)c2c1 [MELATONIN] | 2.8
18 | CNCC(O)c1ccc(O)c(OC)c1 (stereo not drawn) [METANEPHRINE HYDROCHLORIDE] | < 1
19 | CSC[C@H]1O[C@@H](n2cnc3c(N)ncnc32)[C@H](O)[C@@H]1O [METHYLTHIOADENOSINE] | < 1
20 | COc1cc(OC)c(C(C)=O)c(O)c1C [METHYLXANTHOXYLINE] | < 1
21 | CC=C1C[N+]2(C)CC[C@@]34C(=C(C=O)[C@H]1C[C@@H]32)Nc1ccccc14 (stereo partly drawn) [METVINE] | < 1
22 | CC[C@H]1O[C@]2(CC[C@@H]1C)C[C@@H]1C[C@@H](CC=C(C)C[C@@H](C)C=CC=C3CO[C@@H]4[C@H](O)C(C)=C[C@@H](C(=O)O1)[C@]34O)O2 [MILBEMYCIN A4] | 9.9
23 | O=c1c(O)c(-c2ccc(O)cc2O)oc2cc(O)cc(O)c12 [MORIN] | 1.5
24 | O=c1c(O)c(-c2cc(O)c(O)c(O)c2)oc2cc(O)cc(O)c12 [MYRICETIN] | < 1
25 | CNc1ccc(C(=O)CC(O)CCC(C)C2OC(=O)CC(O)CC(=O)CC(O)CC(O)CC(O)CC(O)CC3(O)CC(O)C(C(=O)OC)C(CC(O[C@@H]4O[C@H](C)[C@@H](O)[C@H](N)[C@@H]4O)/C=C/C=C/C=C/C=C/C=C/C=C/C=C/C2C)O3)cc1 (stereo partly drawn) [M[…]] | < 1
26 | COc1cc2c(c(OC)c1OC)-c1ccc(O)c(=O)cc1[C@@H](N)CC2 [N-DEACETYLCOLCHICEINE] | 8.2
27 | COc1cc2c(c(OC)c1OC)-c1ccc(OC)c(=O)cc1[C@@H](NC=O)CC2 [N-FORMYL-N-DEACETYLCOLCHICINE] | 6.6
28 | CNc1ncnc2c1ncn2C1OC(CO)C(O)C1O (stereo not drawn) [N-METHYLADENOSINE] | < 1

Row | SMILES | Papp [×10⁻⁶ cm/s]
29 | CNCCc1c[nH]c2ccc(O)cc12 [N-METHYLSEROTONIN] | 7.1
30 | C[C@@H]1C/C=C/C=C/C=C/C=C/[C@H](O[C@@H]2O[C@H](C)[C@@H](O)[C@H](N)[C@@H]2O)C[C@@H]2O[C@](O)(C[C@@H](O)C[C@H]3O[C@@H]3/C=C/C(=O)O1)C[C@H](O)[C@H]2C(=O)O [NATAMYCIN] | 5.7
31 | COc1ccc([C@@H]2CC(=O)c3c(O)cc(O[C@@H]4O[C@H](CO)[C@@H](O)[C@H](O)[C@H]4O[C@@H]4O[C@@H](C)[C@H](O)[C@@H](O)[C@H]4O)cc3O2)cc1O [NEOHESPERIDIN] | < 1
32 | C[N+]1([O-])CCC[C@@H]1c1cccnc1 (stereo partly drawn) [NICOTINE N'-OXIDE] | 2.8
33 | CC(=O)NCCc1c[nH]c2ccc(O)cc12 [NORMELATONIN] | < 1
34 | COc1cc(C(O)CN)ccc1O (stereo not drawn) [NORMETADRENALINE HYDROCHLORIDE] | < 1
35 | c1cncc([C@@H]2CCCN2)c1 [NORNICOTINE] | 8.4
36 | Cc1cc(O)c(C=O)c2c1C(=O)Oc1c(C)c(O)c3c(c1O2)C(O)OC3=O (stereo not drawn) [Norstictic acid] | 2
37 | CC(=O)Nc1ccccc1O [O-ACETAMIDOPHENOL] | < 1
38 | COc1ccc(-c2coc3cc(O[C@@H]4O[C@H](CO)[C@@H](O)[C@H](O)[C@H]4O)ccc3c2=O)cc1 [ONONOSIDE] | < 1
39 | Cn1c(=O)[nH]c2ncn(C)c2c1=O [PARAXANTHINE] | < 1
40 | O=C1C=C2C(=CCOC2O)O1 (stereo not drawn) [PATULIN] | < 1
41 | COc1ccc(-c2cc(=O)c3c(O)c(OC)c(O[C@@H]4O[C@H](CO[C@@H]5O[C@@H](C)[C@H](O)[C@@H](O)[C@H]5O)[C@@H](O)[C@H](O)[C@H]4O)cc3o2)cc1 [PECTOLINARIN] | < 1
42 | Oc1ccc(-c2[o+]c3cc(O)cc(O)c3cc2O)cc1 [PELARGONIDIN] | < 1
43 | O=C(OC[C@H]1O[C@@H](OC(=O)c2cc(O)c(O)c(O)c2)[C@H](OC(=O)c2cc(O)c(O)c(O)c2)[C@@H](OC(=O)c2cc(O)c(O)c(O)c2)[C@@H]1OC(=O)c1cc(O)c(O)c(O)c1)c1cc(O)c(O)c(O)c1 [PENTAGALLOYLGLUCOSE] | 3.2
44 | O=C(CCc1ccc(O)cc1)c1c(O)cc(O)cc1O [PHLORETIN] | 2.2
45 | O=C(CCc1ccc(O)cc1)c1c(O)cc(O)cc1O[C@@H]1O[C@H](CO)[C@@H](O)[C@H](O)[C@H]1O [PHLORIDZIN] | 1.4
46 | CC1=C[C@H]2[C@@]3(O)[C@H](C)[C@@H](O)[C@]4(O)[C@H]([C@@H]3C=C(CO)C[C@]2(O)C1=O)C4(C)C [PHORBOL] | < 1
47 | CC(=O)c1ccc(O[C@@H]2O[C@H](CO)[C@@H](O)[C@H](O)[C@H]2O)cc1 [PICEIN] | < 1
48 | O=C(O)/C=C/C=C/c1ccc2c(c1)OCO2 [PIPERIC ACID] | < 1
49 | O=C(O)c1ccc2c(c1)OCO2 [PIPERONYLIC ACID] | < 1
50 | OC[C@H]1O[C@@H](Oc2cc(O)cc(/C=C/c3ccc(O)cc3)c2)[C@H](O)[C@@H](O)[C@@H]1O [POLYDATIN] | < 1
51 | COc1ccc([C@@H]2CC(=O)c3c(O)cc(O[C@@H]4O[C@H](CO)[C@@H](O)[C@H](O)[C@H]4O[C@@H]4O[C@@H](C)[C@H](O)[C@@H](O)[C@H]4O)cc3O2)cc1 [PONCIRIN] | < 1

Same assay, conditions: PAMPA, PAMPA-BBB Pe, Table S2: compounds exhibiting moderate to high PAMPA-BBB permeability

Row | SMILES | Papp [×10⁻⁶ cm/s]
52 | CC1=CC(=O)C2=C(C)CC[C@@H]3[C@H](OC(=O)[C@H]3C)[C@@H]12 [LEUKOMISIN] | 57
53 | N[C@@H](Cc1cc(I)c(Oc2cc(I)c(O)c(I)c2)c(I)c1)C(=O)O [LEVOTHYROXINE] | 83
54 | COc1cc(OC)c2ccc(=O)oc2c1 [LIMETTIN] | 105
55 | CN1C[C@H](CO)C=C2c3cccc4[nH]cc(c34)C[C@H]21 [LYSERGOL] | 51
56 | CC(C)c1cccc(O)c1 [M-ISOPROPYLPHENOL] | 149
57 | CCCC[C@@H](C)/C=C(C)/C=C(\C)C(=O)NC1=C[C@@](O)(/C=C/C=C/C=C/C(=O)NC2=C(O)CCC2=O)[C@@H]2O[C@@H]2C1=O [MANUMYCIN A] | 64
58 | CC(=O)[C@H]1CC[C@H]2[C@@H]3C[C@H](C)C4=CC(=O)CC[C@]4(C)[C@H]3[C@@H](O)C[C@]12C [MEDRYSONE] | 72
59 | COC(=O)c1ccc(OC)cc1 [METHYL ANISATE] | 103
60 | COC(=O)C=Cc1ccccc1 [METHYL CINNAMATE] | 98
61 | COC(=O)c1ccccc1OC [METHYL O-ANISATE] | 120
62 | CC(=O)c1ccc[nH]1 [METHYL PYRROL-2-YL KETONE] | 28
63 | COC1=CC(=O)O[C@@H](/C=C/c2ccc3c(c2)OCO3)C1 [METHYSTICIN] | 104
64 | COC(=O)C1=CO[C@@H](C)[C@@H]2CN3CC[C@@]4(C(=O)Nc5ccccc54)[C@@H]3CC12 (stereo partly drawn) [MITRAPHYLLINE] | 117
65 | COC(=O)c1c(C)cc(O)cc1O [Methyl 2,4-dihydroxy-6-methylbenzoate] | 63
66 | CC(C)=CCCC(C)=CC(=O)O [NEROLIC ACID] | 17
67 | Cn1cccc1-c1cccnc1 [NICOTYRINE] | 102
68 | CCCCCCCCC(=O)NCc1ccc(O)c(OC)c1 [NONIVAMIDE] | 125
69 | CC1=C(O)C(=O)CO1 [NORFURONOL] | 47
70 | COc1ccc(-c2cnc(-c3cccnc3)o2)cc1 [O-[…]] | 262
71 | Cn1cnc2c(NCc3ccccc3)nc(NCCO)nc21 [OLOMOUCINE] | 10
72 | CCOc1ccc(O)cc1 [P-HYDROXYPHENETOLE] | 35
73 | COc1ccc(COC(C)=O)cc1 [P-METHOXYBENZYL ACETATE] | 172
74 | COc1ccc(C(C)=O)c(O)c1 [PAEONOL] | 146
75 | COc1ccc(Cc2nccc3cc(OC)c(OC)cc23)cc1OC [PAPAVERINE HYDROCHLORIDE] | 165
76 | CC(C)(O)[C@H]1O[C@H]2CC[C@@]3(C)[C@@](O)(CC[C@H]4Cc5c([nH]c6ccccc56)[C@@]43C)C2=CC1=O [PAXILLINE] | 161
77 | CC(C)=CCOc1c2occc2cc2ccc(=O)oc12 [PENTOSALEN] | 195
78 | CCCCCCCCCCCCCC(=O)O[C@@H]1[C@@H](C)[C@@]2(O)[C@@H](C=C(CO)C[C@]3(O)C(=O)C(C)=C[C@@H]23)[C@@H]2C(C)(C)[C@]12OC(C)=O [PHORBOL MYRISTATE ACETATE] | 47
